Series [1] deals with H22. As to the kind of experiment: Antitumor activity against mouse H22 cells implanted in Kunming mouse assessed as reduction in tumor growth at 10 mg/kg, iv relative to control. Format: functional. As to conditions: read-out: TGI.
Series [2] relates to H22. As to the kind of experiment: Antitumor activity against mouse H22 cells implanted in Kunming mouse assessed as reduction in tumor growth at 20 mg/kg, iv relative to control. The format is functional. As to conditions: read-out: TGI.
Series [3] has as its system HT-29. Description: Antiproliferative activity against human HT-29 cells assessed as reduction in cell viability incubated for 72 hrs by MTT assay. The format is functional, cell-based. As to conditions: HT-29, 72 h.
Series [4] deals with HCT-116. As to the kind of experiment: Antiproliferative activity against human HCT-116 cells assessed as reduction in cell viability incubated for 72 hrs by MTT assay. The format is functional, cell-based. As to conditions: HCT-116, 72 h. For orientation: Formazan colour is commonly taken as a measure of viable cells.
Series [5] has as its system HGC-27. As to the kind of experiment: Antiproliferative activity against human HGC-27 cells assessed as reduction in cell viability incubated for 72 hrs by MTT assay. Format: functional, cell-based. As to conditions: HGC-27, 72 h.
For series [6], the system named is HeLa. As to the kind of experiment: Antiproliferative activity against human HeLa cells assessed as reduction in cell viability incubated for 72 hrs by MTT assay. The format is functional, cell-based.
Series [7] relates to HT-29. As to the kind of experiment: Antitumor activity against human HT-29 cells xenografted in po dosed nude mouse assessed as reduction in tumor growth at 20 mg/kg relative to control. Format: functional. As to conditions: read-out: TGI. In general terms: A xenograft is tissue or cells of one species grown in another, often human tumour cells in immunodeficient mice.
The nature of series [8]: Tmax in mouse at 1 mg/kg, sc. The format is ADME, organism-based. As to conditions: in vivo.
The nature of series [9]: Cmax in mouse at 1 mg/kg, sc. As to conditions: in vivo. Format: ADME, organism-based.
Series [10] in a line: Oral bioavailability in mouse at 1 mg/kg. As to conditions: in vivo. The format is ADME, organism-based.
Series [11] addresses Ubiquitin carboxyl-terminal hydrolase 8 (Homo sapiens, UniProt P40818). Description: Inhibition of human USP8 expressed in Escherichia coli using K63-linked di-ubiquitin (ENZO BML-UW0730-0050) as substrate preincubated for 15 mins followed by substrate addition and measured after 20 mins by fluorescence based analysis.
In series [12] the test system is MDA-MB-435. Description: Antitumor activity against human MDA-MB-435 cells xenografted in Sprague-Dawley rat model assessed as reduction in tumor volume at 50 mg/kg, ip relative to control. Further details: scale not given: the % may be the effect or the level left. The format is functional.
For series [13], the system named is HT-29. As to the kind of experiment: Antiproliferative activity against human HT-29 cells assessed as cell growth inhibition incubated for 72 hrs by MTT assay. Format: functional, cell-based. As to conditions: HT-29, 72 h.
For series [14], the system named is MCF7. As to the kind of experiment: Antiproliferative activity against human MCF7 cells assessed as cell growth inhibition incubated for 72 hrs by MTT assay. As to conditions: MCF7, 72 h. Format: functional, cell-based.
Series [15] deals with HT-29. As to the kind of experiment: Antitumor activity against human HT-29 cells xenografted in nude mouse assessed as reduction in tumor growth at 50 mg/kg, po administered for 21 days relative to control. Format: functional. As to conditions: HT-29, 504 h, time 21 day, read-out: TGI.
Series [16] concerns HT-29. As to the kind of experiment: Antitumor activity against human HT-29 cells xenografted in nude mouse assessed as reduction in tumor growth at 50 mg/kg, ip administered for 21 days relative to control. The format is functional. As to conditions: HT-29, 504 h, time 21 day, read-out: TGI.
Series [17] has as its system KCL-22. As to the kind of experiment: Antitumor activity against human KCL-22 cells xenografted in mouse assessed as reduction in tumor growth at 3 mg/kg, po relative to control. As to conditions: KCL-22, po, read-out: TGI.
Series [18] can be described thus: Tmax in mouse at 40 mg/kg, po. As to conditions: in vivo. Format: ADME, organism-based.
A short description of series [19]: Half life in mouse at 40 mg/kg, po. The format is ADME, organism-based. As to conditions: in vivo.
A short description of series [20]: Oral bioavailability in rat. As to conditions: in vivo.
Series [21] is described as follows: Oral bioavailability in dog. As to conditions: in vivo.
Series [22] relates to OE19. As to the kind of experiment: Antitumor activity against human OE19 cells xenografted in NOD/SCID mouse model assessed as tumor growth inhibition at 25 mg/kg, ip administered for 14 days relative to control. As to conditions: OE19, 336 h, time 14 day, read-out: TGI. The format is functional.
The subject of series [23] is OE19. As to the kind of experiment: Antitumor activity against human OE19 cells xenografted in NOD/SCID mouse model assessed as tumor growth inhibition at 25 mg/kg, ip administered for 14 days in presence of flavopiridol relative to control. Format: functional. Set-up: scale not given: the % may be the effect or the level left. As to conditions: time 14 day.
Series [24] has as its system OE19. Description: Antitumor activity against human OE19 cells xenografted in NOD/SCID mouse model assessed as tumor growth inhibition at 25 mg/kg, ip administered for 46 days relative to control. Further details: scale not given: the % may be the effect or the level left. As to conditions: time 46 day. The format is functional.
Series [25] deals with NCI-H460. Description: Antitumor activity against human NCI-H460 cells xenografted in nude mouse assessed as tumor growth inhibition at 6.25 mg/kg, po administered twice daily for 14 days in presence of 2-deoxyglucose relative to control. Set-up: scale not given: the % may be the effect or the level left. The format is functional. As to conditions: time 14 day.
Series [26] relates to HCT-116. Description: Antitumor activity against human HCT-116 cells xenografted in BALB/c nude mouse assessed as tumor growth inhibition at 25 mg/kg, po administered once a daily for 13 consecutive days relative to control. As to conditions: read-out: TGI. The format is functional.
Series [27] in a line: Cytotoxicity against human HuT 102 cells assessed as reduction in cell growth incubated for 72 hrs by MTT assay. Format: functional, cell-based. As to conditions: HuT-102, 72 h.
Series [28] can be described thus: Cytotoxicity against human OATL4 cells assessed as cell growth inhibition incubated for 72 hrs by MTT assay. The format is functional, cell-based. As to conditions: OATL4, 72 h.
Series [29] can be described thus: Cytotoxicity against human KOB cells assessed as cell growth inhibition incubated for 72 hrs by MTT assay. The format is functional, cell-based.
Series [30] concerns the target Heat shock protein HSP 90-alpha (Homo sapiens, UniProt P07900). As to the kind of experiment: Inhibition of human recombinant HSP90alpha expressed in Escherichia coli BL21 (DE3) incubated for 12 hrs by.
Series [31] deals with Heat shock protein HSP 90-beta (Homo sapiens, UniProt P08238). Description: Inhibition of human recombinant HSP90beta expressed in Escherichia coli BL21 (DE3) incubated for 12 hrs.
Series [32] in a line: Antitumor activity against human HuT 102 cells xenografted in mouse assessed as reduction in tumor growth at 14 mg/kg, po relative to control. The format is functional. As to conditions: read-out: TGI.

Sequence of Heat shock protein HSP 90-beta (P08238 whole entry): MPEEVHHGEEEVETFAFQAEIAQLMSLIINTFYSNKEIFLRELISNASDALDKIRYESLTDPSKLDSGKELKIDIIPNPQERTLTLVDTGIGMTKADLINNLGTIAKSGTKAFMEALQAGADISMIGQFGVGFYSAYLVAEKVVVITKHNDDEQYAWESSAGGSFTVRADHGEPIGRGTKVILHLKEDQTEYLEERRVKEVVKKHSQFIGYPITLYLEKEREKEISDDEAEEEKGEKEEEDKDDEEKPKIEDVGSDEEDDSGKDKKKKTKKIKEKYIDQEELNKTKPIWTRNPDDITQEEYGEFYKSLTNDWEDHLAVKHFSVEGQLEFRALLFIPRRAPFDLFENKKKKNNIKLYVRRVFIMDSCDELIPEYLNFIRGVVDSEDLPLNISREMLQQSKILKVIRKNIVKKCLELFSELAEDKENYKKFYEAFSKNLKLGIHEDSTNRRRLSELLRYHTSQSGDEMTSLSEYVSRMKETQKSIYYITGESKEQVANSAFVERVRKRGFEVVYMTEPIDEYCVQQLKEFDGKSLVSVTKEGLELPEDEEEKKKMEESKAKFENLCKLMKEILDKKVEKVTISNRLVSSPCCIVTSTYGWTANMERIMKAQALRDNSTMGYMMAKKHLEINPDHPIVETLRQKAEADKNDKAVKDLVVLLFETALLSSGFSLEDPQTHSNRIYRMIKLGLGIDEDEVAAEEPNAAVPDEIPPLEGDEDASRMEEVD
Sequence of Ubiquitin carboxyl-terminal hydrolase 8 (P40818 whole entry): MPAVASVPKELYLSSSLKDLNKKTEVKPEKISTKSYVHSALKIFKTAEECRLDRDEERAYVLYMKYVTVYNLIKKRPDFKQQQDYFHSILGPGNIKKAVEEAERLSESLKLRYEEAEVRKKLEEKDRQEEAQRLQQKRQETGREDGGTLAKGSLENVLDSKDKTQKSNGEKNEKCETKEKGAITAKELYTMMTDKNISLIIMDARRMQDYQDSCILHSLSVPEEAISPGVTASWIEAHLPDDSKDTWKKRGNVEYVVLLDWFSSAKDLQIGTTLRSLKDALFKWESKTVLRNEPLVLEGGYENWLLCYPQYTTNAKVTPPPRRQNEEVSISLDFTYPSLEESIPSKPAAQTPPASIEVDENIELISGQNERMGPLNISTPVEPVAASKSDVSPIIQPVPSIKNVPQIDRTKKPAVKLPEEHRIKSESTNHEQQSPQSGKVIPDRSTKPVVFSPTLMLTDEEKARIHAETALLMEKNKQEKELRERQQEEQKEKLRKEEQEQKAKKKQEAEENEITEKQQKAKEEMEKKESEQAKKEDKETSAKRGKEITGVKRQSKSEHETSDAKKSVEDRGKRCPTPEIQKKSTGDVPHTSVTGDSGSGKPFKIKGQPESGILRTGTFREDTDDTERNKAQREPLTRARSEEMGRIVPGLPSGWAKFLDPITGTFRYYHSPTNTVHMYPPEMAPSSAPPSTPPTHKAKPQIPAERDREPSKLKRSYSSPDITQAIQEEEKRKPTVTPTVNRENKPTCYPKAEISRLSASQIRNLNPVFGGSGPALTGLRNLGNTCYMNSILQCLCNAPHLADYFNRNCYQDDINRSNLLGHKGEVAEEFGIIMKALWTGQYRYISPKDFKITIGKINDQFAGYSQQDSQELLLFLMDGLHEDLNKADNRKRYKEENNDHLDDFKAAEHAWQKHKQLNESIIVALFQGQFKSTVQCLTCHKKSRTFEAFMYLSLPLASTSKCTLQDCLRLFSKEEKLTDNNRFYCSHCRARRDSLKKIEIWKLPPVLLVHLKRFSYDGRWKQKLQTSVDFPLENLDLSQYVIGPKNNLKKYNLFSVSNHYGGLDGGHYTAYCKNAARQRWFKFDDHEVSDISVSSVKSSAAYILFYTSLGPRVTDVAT

Take `COc1cccc(C2=NN(C(N)=O)C(c3cn(C)c4ccc(Br)cc34)C2)c1` (configuration not stated): in series [1], the inhibition in vivo at 10 mg/kg is 65%. Besides, in [2], the inhibition in vivo at 20 mg/kg is 76%.
For `COc1cc(/C=C2\CCCN3C(=O)C4C=NN(C)C4N=C23)cc(OC)c1OC` (configuration not stated), the IC50 in series [3], in series [4], in series [5] and in series [6] was 30 nM each time. Also, the inhibition in vivo at 20 mg/kg in series [7] came out at 61.7%. Also, the Tmax in series [8] turned out to be 1.67 h. Also, the Cmax in [9] was 68.8 ng/mL. Besides, the bioavailability in series [10] is 78.6%.
Molecule `Brc1ccc(-n2nc(-c3cccnc3)cc2-c2ccccc2)cc1` displayed an IC50 in [11] of 1200 nM. The Activity in series [12] stood at 40%.
As for `O=C1CN(CC(=O)N2N=C(c3ccccc3)CC2c2ccccc2)C(=O)N1` (configuration not stated), the IC50 in [13] came out at 10 nM; in series [14], 690 nM. The values for the inhibition in vivo at 50 mg/kg in [15] and in [16] were 34% and 31%, respectively.
With `O=C(Nc1ccc(OC(F)(F)Cl)cc1)c1cnc(N2CC[C@@H](O)C2)c(-c2ccn[nH]2)c1` [ASCIMINIB], the inhibition in vivo at 3 mg/kg in series [17] came to 65%. Also, in series [18], the time to peak (Tmax) was 2.5 h. In series [19], this molecule had a half-life of 5.5 h.
Take `COc1cc(OC)c(F)c(COc2cnc(Nc3cnn(CCO)c3)nc2)c1F` [ASP-5878]: the bioavailability in [20] worked out at 76.1%; in series [21] it was 94.2%.
For the molecule `C[C@@]1(C(=O)Nc2ccc(F)nc2)CCCN1c1nc(Nc2cc(C3CC3)n[nH]2)c2cccn2n1` [BMS-754807], in [22], the inhibition in vivo at 25 mg/kg turned out to be 52%. Moreover, the Activity in series [23] turned out to be 92.2%; in series [24], 61.8%; in series [25], 69%.
Consider `O=c1[nH]cc(F)c(=O)[nH]1` [FLUOROURACIL], for which the inhibition in vivo at 25 mg/kg in series [26] amounted to 54.8%.
Take `CCc1cc(C(N)=O)ccc1-n1nc(C(C)C)c2c(-n3cnc(-c4cnn(C)c4)c3)ccnc21` [TAS-116]: the IC50 came to 376 nM in series [27]; 376 nM in series [28]; 376 nM in [29]; 34.7 nM in series [30]; 21.3 nM in series [31]. For the same molecule, in series [32], the inhibition in vivo at 14 mg/kg is 70%.

One may read the IC50 as the point on the concentration scale where inhibition reaches its midpoint. In general, Tmax refers to the time at which the peak concentration occurs. The Cmax is the peak of the concentration-time curve. Broadly, the bioavailability is dose-corrected exposure relative to a reference, in per cent. The term half-life denotes the time needed for the level to fall by half in the phase considered.

The values are drawn from ChEMBL document CHEMBL5620346, “Current scenario of pyrazole hybrids with in vivo therapeutic potential against cancers” (Eur J Med Chem, 2023).
